Assays:
Caco = test: Cytotoxicity on human cells, Caco (colon); format: cell-based; conditions: exposed 24 h and 48 h, 0.1 to 25 μM
Procedure: (§1) […] Dosages on Human cells (Huh7, Caco, MDA-MB 231, HCT 116, PC3, NCl, Fibroblast)
(§2) Cytotoxicity: This method is based on an automated imaging analysis. 4.10^3 cells were cultivated on 96-well plates and thus left for 24 hours so that they may bind, be distributed and proliferate.
(§3) These cells were then exposed for 24 h and 48 h to increasing concentrations of the compounds of the invention, from 0.1 to 25 μM in a final volume of 80 μL of culture medium. The cells are then set with a 4% paraformaldehyde solution and the nuclei are colored with Hoechst 3342 and counted according to automated imaging quantification.
(§4) All the cell lines were cultivated in a DMEM or RPMI (Invitrogen) medium. All these media were completed with antibiotics (penicillin-streptomycin)(Lonza) and 10% by volume of foetal calf serum (Invitrogen). The cells were cultivated at 37° C. with 5% of CO2. The treatments with the molecules to be tested were carried out with increasing concentrations. […] The control experiments were also conducted by using suitable dilutions of DMSO (maximum 1% DMSO). Cell viability was determined by measuring the reduction of MTS as described in the article of Ribas J, Boix J. (2004). Cell differentiation caspase inhibition and macromolecular synthesis blockage but not BCL-2 or BCL-XL proteins protect SH-SY5Y cells from apoptosis triggered by two CDK inhibitory drugs. Exp. Cell Res., 295: 9-24.

DYRK1A = DYRK1A (Homo sapiens, UniProt Q13627); test: DYRK1A kinase inhibition (Woodtide substrate, buffer A); format: biochemical; conditions: 15 μM ATP, 30° C., recombinant GST fusion; read-out: IC50 Kinases DYRK1A
Procedure: (§5) The activities for inhibiting protein kinases of the compounds of the invention are tested according to the following general procedure:
(§6) Buffer A: 10 mM MgCl2, 1 mM EGTA, 1 mM DTT, 25 mM Tris-HCl pH 7.5 and 50 μg heparin/mL.
(§7) The kinase activities are dosed in buffers A or C, at 30° C., at a final concentration of ATP of 15 μM. The values of the blanks were subtracted and the activities are expressed as a % of the maximum activity, i.e. in the absence of inhibitors. The controls were carried out with suitable dilutions of DMSO.

Huh7 = test: Cytotoxicity on human cells, Huh7 (liver); format: cell-based; conditions: Huh-7, human cells, exposed 24 h and 48 h, 0.1 to 25 μM
Procedure: as §1, §2, §3, §4

fibroblast = test: Cytotoxicity on human cells, fibroblast; format: cell-based; conditions: exposed 24 h and 48 h, 0.1 to 25 μM
Procedure: as §1, §2, §3, §4

GSK-3αβ = GSK-3αβ kinase inhibition (GS-1 substrate, buffer A); format: biochemical; conditions: 15 μM ATP, 30° C., native, pig brain; read-out: IC50 Kinases GSK3
Procedure: as §5, §6, §7
GSK-3αβ (from pig brain, native) was assayed by using a specific substrate of GSK-3 (GS-1: […]pEDEEE)(Sp represents a phosphorylated serine) (Primot, A., Baratte, B., Gompel, M., Borgne, A., Liabeuf, S., Romette, J. L., Costantini, F. and Meijer, L., 2000. Purification of GSK-3 by affinity chromatography on immobilized axin. Protein Expr. & Purif. 20 (3), 394-404). GS-1 was synthesized by Millegen (Labège, France). Its kinase activity was analyzed in the buffer A, with 1 mg of histone H1/mL, in the presence of 15 μM of [γ-^33P] ATP (3,000 Ci/mmol; 10 mCi/mL) in a final volume of 30 μl. After 30 mins of incubation at 30° C., 25 μl of supernatant aliquots were deposited on 2.5×3 cm pieces of phosphocellulose Whatman P81papier, and after 20 seconds, the filters were washed five times (for at least 5 minutes every time) in a solution of 10 mL of phosphoric acid/liter of water. The wet filters were counted in the presence of 1 mL of ACS scintillator fluid (Amersham).

PC3 = test: Cytotoxicity on human cells, PC3 (prostate); format: cell-based; conditions: PC-3, human cells, exposed 24 h and 48 h, 0.1 to 25 μM
Procedure: as §1, §2, §3, §4

HCT 116 = test: Cytotoxicity on human cells, HCT 116 (colon); format: cell-based; conditions: exposed 24 h and 48 h, 0.1 to 25 μM
Procedure: as §1, §2, §3, §4

NCI = test: Cytotoxicity on human cells, NCI (lung); format: cell-based; conditions: exposed 24 h and 48 h, 0.1 to 25 μM
Procedure: as §1, §2, §3, §4

CDK5 = target: T1, CDK5 (Homo sapiens, UniProt Q00535); test: CDK5 kinase inhibition (histone H1, [γ-33P] ATP, buffer C); format: biochemical; conditions: 15 μM ATP, 30° C., recombinant; read-out: IC50 Kinases CDK5
T1 construct: made in house
Procedure: as §5
Buffer C: 60 mM β-glycerophosphate, 15 mM p-nitrophenyl-phosphate, 25 mM Mops (pH 7.2), 5 mM EGTA, 15 mM MgCl2, 1 mM DTT, 1 mM of sodium vanadate
as §7
CDK5 (humane, recombinant) was prepared as described earlier (Leclerc, S.; Garnier, M.; Hoessel, R.; Marko, D.; Bibb, J. A.; Snyder, G. L.; Greengard, P.; Biernat, J.; Mandelkow, E.-M.; Eisenbrand, G.; Meijer, L. Indirubins inhibit glycogen synthase kinase-3β and CDK5/p25, two kinases involved in abnormal tau phosphorylation in Alzheimer's disease—A property common to most CDK inhibitors? J. Biol. Chem. 2001, 276, 251-260; Bach S, Knockaert M, Reinhardt J, Lozach O, Schmitt S, Baratte B et al. (2005). Roscovitine targets, protein kinases and pyridoxal kinase. J. Biol Chem 280: 31208-31219). Its kinase activity was analyzed in the buffer C, with 1 mg of histone H1/mL, in the presence of 15 μM of [γ-^33P] ATP (3,000 Ci/mmol; 10 mCi/mL) in a final volume of 30 μl. After 30 mins of incubation at 30° C., 25 μl of supernatant aliquots were deposited on 2.5×3 cm pieces of phosphocellulose Whatman P81 paper, and after 20 seconds, the filters were washed five times (for at least 5 minutes every time) in a solution of 10 mL phosphoric acid/liter of water. The wet filters were counted in the presence of 1 mL of ACS scintillator fluid (Amersham).

MDA-MB 231 = test: Cytotoxicity on human cells, MDA-MB 231 (breast); format: cell-based; conditions: MDA-MB-231, human cells, exposed 24 h and 48 h, 0.1 to 25 μM
Procedure: as §1, §2, §3, §4

T1 sequence (Q00535 whole entry): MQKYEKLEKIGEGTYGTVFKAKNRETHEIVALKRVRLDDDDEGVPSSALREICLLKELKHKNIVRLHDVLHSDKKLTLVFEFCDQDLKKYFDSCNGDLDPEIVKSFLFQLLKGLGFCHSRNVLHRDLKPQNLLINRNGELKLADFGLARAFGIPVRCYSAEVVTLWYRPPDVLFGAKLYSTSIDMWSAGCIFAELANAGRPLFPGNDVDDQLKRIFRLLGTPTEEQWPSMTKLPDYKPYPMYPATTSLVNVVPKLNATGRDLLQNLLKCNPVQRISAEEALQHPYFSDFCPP
T1 sequence (Q15078 99-307 partner limits assumed): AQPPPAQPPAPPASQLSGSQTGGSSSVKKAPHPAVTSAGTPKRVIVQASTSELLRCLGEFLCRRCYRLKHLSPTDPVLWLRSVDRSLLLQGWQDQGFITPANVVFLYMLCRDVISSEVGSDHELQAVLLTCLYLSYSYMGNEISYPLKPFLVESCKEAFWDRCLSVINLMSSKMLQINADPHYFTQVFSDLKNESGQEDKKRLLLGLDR

Row | SMILES | IC50 (Caco) | IC50 (DYRK1A) | IC50 (Huh7) | melting point | IC50 (fibroblast) | IC50 (GSK-3αβ) | IC50 (PC3) | IC50 (HCT 116) | IC50 (NCI) | IC50 (CDK5) | IC50 (MDA-MB 231)
1 | Oc1ccc(-c2ncc3ncc(-c4ccco4)cc3n2)cc1 [Compound 35, 2-(4-Hydroxyphenyl)-7-(2-furyl)-pyrido[3,2-d]pyrimidine] | > 25 µM | > 10 µM | 15 µM | 261 to 263 °C | 6 µM | > 10 µM | 20 µM | 5 µM | 7 µM | 1800 nM | 4 µM
2 | CC(=O)c1ccc(Nc2cnc3c(NCc4ccccc4)nc(NCCO)nc3c2)cc1 [Compound 86, 4-Benzylamino-7-(4-acetylphenylamino)-2-(2-hydroxyethylamino)-pyrido[3,2-d]pyrimidine] | 3 µM | > 10 µM | 2 µM | 125 to 126 °C | 5 µM | > 10 µM | 3 µM | 1 µM | 2 µM | > 10000 nM | 15 µM
3 | Oc1ccc(-c2ncc3ncc(-c4cccc(O)c4)cc3n2)cc1 [Compound 23, 2-(4-Hydroxyphenyl)-7-(3-hydroxyphenyl)-pyrido[3,2-d]pyrimidine] | 4 µM | 2.4 µM | 10 µM | 256 to 257 °C | > 25 µM | > 100 µM | 9 µM | 7 µM | 20 µM | 110 nM | > 25 µM
4 | Oc1ccc(Nc2ncc3ncc(-c4cccc(O)c4)cc3n2)cc1 [Compound 61, 2-(4-Hydroxyphenylamino)-7-(3-hydroxyphenyl)-pyrido[3,2-d]pyrimidine] | 12 µM | > 10 µM | 10 µM | > 268 °C | 2 µM | 4.5 µM | 7 µM | 12 µM | 4 µM | 710 nM | 9 µM
5 | Oc1ccc(-c2ncc3ncc(Cl)cc3n2)cc1 [Compound 17, 7-Chloro-2-(4-hydroxyphenyl)-pyrido[3,2-d]pyrimidine] | > 25 µM | 16 µM | > 25 µM | 231 to 232 °C | > 25 µM | > 100 µM | > 25 µM | > 25 µM | > 25 µM | 5100 nM | > 25 µM
6 | Oc1ccc(-c2ncc3ncc(-c4cccnc4)cc3n2)cc1 [Compound 33, 2-(4-Hydroxyphenyl)-7-(3-pyridinyl)-pyrido[3,2-d]pyrimidine] | > 25 µM | > 10 µM | > 25 µM | > 268 °C | > 25 µM | > 10 µM | > 25 µM | > 25 µM | > 25 µM | 650 nM | > 25 µM
7 | N#Cc1ccc(Nc2cnc3cnc(-c4ccc(O)cc4)nc3c2)nc1 [Compound 54, 2-(4-Hydroxyphenyl)-7-(2-(5-cyano)pyridinylamino)-pyrido[3,2-d]pyrimidine] | > 25 µM | > 10 µM | > 25 µM | > 268 °C | > 25 µM | 5.5 µM | > 25 µM | > 25 µM | 20 µM | 4000 nM | 12 µM
8 | COc1ccc(Nc2cnc3cnc(-c4ccc(O)cc4)nc3c2)cc1 [Compound 51, 2-(4-Hydroxyphenyl)-7-(4-methoxyphenylamino)-pyrido[3,2-d]pyrimidine] | 12 µM | > 10 µM | 15 µM | 134 to 136 °C | 10 µM | 7.3 µM | 2 µM | 15 µM | 10 µM | 1800 nM | 15 µM

Source: patent US20130109693A1, “DERIVATIVES OF PYRIDO [3,2-D] PYRIMIDINE, METHODS FOR PREPARATION THEREOF AND THERAPEUTIC USES THEREOF” (UNIVERSITE D'ORLEANS, priority 2010, published 2013)
